Reference: PubChem BioAssay (NCI)
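Tested at 5 concentrations; 48 h exposure; 96-well plates; endpoints linearly interpolated, else capped at highest concentration. Here, GI50 denotes the concentration required for 50% inhibition of growth. At the TGI there is no net growth.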

How the values were obtained:
Experiment in all cases: NCI tumour cell line growth inhibition, 48 h
SF-268 CNS = tested on: SF-268 CNS
OVCAR-5 ovarian = tested on: OVCAR-5 ovarian
LOX IMVI melanoma = tested on: LOX IMVI melanoma
SN12C renal = tested on: SN12C renal
SF-295 CNS = tested on: SF-295 CNS
HL-60(TB) leukemia = tested on: HL-60(TB) leukemia
COLO 205 colon = tested on: COLO 205 colon
UO-31 renal = tested on: UO-31 renal
NCI-H23 lung = tested on: NCI-H23 lung
MDA-MB-231 breast = tested on: MDA-MB-231 breast
NCI-H522 lung = tested on: NCI-H522 lung
SNB-19 CNS = tested on: SNB-19 CNS
RPMI-8226 leukemia = tested on: RPMI-8226 leukemia
HCC-2998 colon = tested on: HCC-2998 colon
SNB-75 CNS = tested on: SNB-75 CNS
A498 renal = tested on: A498 renal
HT29 colon = tested on: HT29 colon
OVCAR-4 ovarian = tested on: OVCAR-4 ovarian
BT-549 breast = tested on: BT-549 breast
HS 578T breast = tested on: HS 578T breast
TK-10 renal = tested on: TK-10 renal
NCI/ADR-RES ovarian = tested on: NCI/ADR-RES ovarian
ACHN renal = tested on: ACHN renal
SK-MEL-5 melanoma = tested on: SK-MEL-5 melanoma
T-47D breast = tested on: T-47D breast
MDA-MB-435 = tested on: MDA-MB-435
RXF 393 renal = tested on: RXF 393 renal
M14 melanoma = tested on: M14 melanoma
KM12 colon = tested on: KM12 colon
MCF7 breast = tested on: MCF7 breast
786-0 renal = tested on: 786-0 renal
OVCAR-8 ovarian = tested on: OVCAR-8 ovarian
OVCAR-3 ovarian = tested on: OVCAR-3 ovarian
UACC-257 melanoma = tested on: UACC-257 melanoma
SK-OV-3 ovarian = tested on: SK-OV-3 ovarian
PC-3 prostate = tested on: PC-3 prostate
HOP-62 NSCLC = tested on: HOP-62 NSCLC
DU-145 prostate = tested on: DU-145 prostate
SK-MEL-2 melanoma = tested on: SK-MEL-2 melanoma
MOLT-4 leukemia = tested on: MOLT-4 leukemia
MALME-3M melanoma = tested on: MALME-3M melanoma
NCI-H226 lung = tested on: NCI-H226 lung
K-562 leukemia = tested on: K-562 leukemia
HOP-92 NSCLC = tested on: HOP-92 NSCLC
EKVX NSCLC = tested on: EKVX NSCLC
SW-620 colon = tested on: SW-620 colon
IGROV1 ovarian = tested on: IGROV1 ovarian
CAKI-1 renal = tested on: CAKI-1 renal
SF-539 CNS = tested on: SF-539 CNS
UACC-62 melanoma = tested on: UACC-62 melanoma
HCT-116 colon = tested on: HCT-116 colon
SK-MEL-28 melanoma = tested on: SK-MEL-28 melanoma
U251 CNS = tested on: U251 CNS
NCI-H460 lung = tested on: NCI-H460 lung
HCT-15 colon = tested on: HCT-15 colon
A549 NSCLC = tested on: A549 NSCLC

SMILES: CC1=C[C@@H]2c3c(c(O)c(O)c4oc5cc(O)cc(O)c5c(=O)c34)[C@@H](c3cc(O)c(O)c4oc5cc(O)cc(O)c5c(=O)c34)[C@@H]2C(C)(C)C1
- GI50 (SF-268 CNS): 3.25 µM
- TGI (SF-268 CNS): 16.1 µM
- GI50 (OVCAR-5 ovarian): 7.83 µM
- TGI (OVCAR-5 ovarian): 18.2 µM
- GI50 (LOX IMVI melanoma): 1530 nM
- TGI (LOX IMVI melanoma): 4.26 µM
- GI50 (SN12C renal): 3.91 µM
- TGI (SN12C renal): 23 µM
- GI50 (SF-295 CNS): 2870 nM
- TGI (SF-295 CNS): 11.3 µM
- GI50 (HL-60(TB) leukemia): 4.87 µM
- TGI (HL-60(TB) leukemia): 27.4 µM
- GI50 (COLO 205 colon): 2860 nM
- TGI (COLO 205 colon): 11.2 µM
- GI50 (UO-31 renal): 3.83 µM
- TGI (UO-31 renal): 16.3 µM
- GI50 (NCI-H23 lung): 3.33 µM
- TGI (NCI-H23 lung): 14.5 µM
- GI50 (MDA-MB-231 breast): 4.19 µM
- TGI (MDA-MB-231 breast): 20.5 µM
- GI50 (NCI-H522 lung): 2900 nM
- TGI (NCI-H522 lung): 12.1 µM
- GI50 (SNB-19 CNS): 2760 nM
- TGI (SNB-19 CNS): 13 µM
- GI50 (RPMI-8226 leukemia): 1960 nM
- TGI (RPMI-8226 leukemia): 10.3 µM
- GI50 (HCC-2998 colon): 3.87 µM
- TGI (HCC-2998 colon): 15.2 µM
- GI50 (SNB-75 CNS): 6.34 µM
- TGI (SNB-75 CNS): 20.5 µM
- GI50 (A498 renal): 9.07 µM
- TGI (A498 renal): 21 µM
- GI50 (HT29 colon): 3.86 µM
- TGI (HT29 colon): 14.8 µM
- GI50 (OVCAR-4 ovarian): 3.26 µM
- TGI (OVCAR-4 ovarian): 14.7 µM
- GI50 (BT-549 breast): 3.68 µM
- TGI (BT-549 breast): 19.8 µM
- GI50 (HS 578T breast): 3.42 µM
- TGI (HS 578T breast): 21 µM
- GI50 (TK-10 renal): 5.85 µM
- TGI (TK-10 renal): 19.2 µM
- GI50 (NCI/ADR-RES ovarian): 10.2 µM
- TGI (NCI/ADR-RES ovarian): 27.1 µM
- GI50 (ACHN renal): 4.25 µM
- TGI (ACHN renal): 15.7 µM
- GI50 (SK-MEL-5 melanoma): 2560 nM
- TGI (SK-MEL-5 melanoma): 10.5 µM
- GI50 (T-47D breast): 4.6 µM
- TGI (T-47D breast): 19.2 µM
- GI50 (MDA-MB-435): 3.49 µM
- TGI (MDA-MB-435): 13.7 µM
- GI50 (RXF 393 renal): 5.69 µM
- TGI (RXF 393 renal): 17.3 µM
- GI50 (M14 melanoma): 2370 nM
- TGI (M14 melanoma): 12.8 µM
- GI50 (KM12 colon): 3.1 µM
- TGI (KM12 colon): 12.2 µM
- GI50 (MCF7 breast): 1890 nM
- TGI (MCF7 breast): 11 µM
- GI50 (786-0 renal): 2690 nM
- TGI (786-0 renal): 11.5 µM
- GI50 (OVCAR-8 ovarian): 4.31 µM
- TGI (OVCAR-8 ovarian): 18.8 µM
- GI50 (OVCAR-3 ovarian): 3.33 µM
- TGI (OVCAR-3 ovarian): 13.4 µM
- GI50 (UACC-257 melanoma): 9.65 µM
- TGI (UACC-257 melanoma): 24.5 µM
- GI50 (SK-OV-3 ovarian): 3.77 µM
- TGI (SK-OV-3 ovarian): 14.6 µM
- GI50 (PC-3 prostate): 3.33 µM
- TGI (PC-3 prostate): 14 µM
- GI50 (HOP-62 NSCLC): 3000 nM
- TGI (HOP-62 NSCLC): 14.5 µM
- GI50 (DU-145 prostate): 5.53 µM
- TGI (DU-145 prostate): 16.6 µM
- GI50 (SK-MEL-2 melanoma): 5.99 µM
- TGI (SK-MEL-2 melanoma): 21 µM
- GI50 (MOLT-4 leukemia): 3.38 µM
- TGI (MOLT-4 leukemia): 19.5 µM
- GI50 (MALME-3M melanoma): 8.53 µM
- TGI (MALME-3M melanoma): 25.2 µM
- GI50 (NCI-H226 lung): 3.82 µM
- TGI (NCI-H226 lung): 28.4 µM
- GI50 (K-562 leukemia): 2340 nM
- TGI (K-562 leukemia): 80 µM
- GI50 (HOP-92 NSCLC): 1850 nM
- TGI (HOP-92 NSCLC): 6.6 µM
- GI50 (EKVX NSCLC): 5 µM
- TGI (EKVX NSCLC): 15.6 µM
- GI50 (SW-620 colon): 3.48 µM
- TGI (SW-620 colon): 14.2 µM
- GI50 (IGROV1 ovarian): 4.01 µM
- TGI (IGROV1 ovarian): 22.2 µM
- GI50 (CAKI-1 renal): 3.93 µM
- TGI (CAKI-1 renal): 14 µM
- GI50 (SF-539 CNS): 4.7 µM
- TGI (SF-539 CNS): 17.2 µM
- GI50 (UACC-62 melanoma): 1880 nM
- TGI (UACC-62 melanoma): 5.72 µM
- GI50 (HCT-116 colon): 2700 nM
- TGI (HCT-116 colon): 9.85 µM
- GI50 (SK-MEL-28 melanoma): 5.64 µM
- TGI (SK-MEL-28 melanoma): 18.7 µM
- GI50 (U251 CNS): 2340 nM
- TGI (U251 CNS): 13.9 µM
- GI50 (NCI-H460 lung): 1100 nM
- TGI (NCI-H460 lung): 8.31 µM
- GI50 (HCT-15 colon): 3.16 µM
- TGI (HCT-15 colon): 12.8 µM
- GI50 (A549 NSCLC): 4.12 µM
- TGI (A549 NSCLC): 17.6 µM
